Experimental data: patent US10543189B2, “2-acetylnaphtho[2,3-b]furan -4,9-dione for use on treating cancer” (Boston Biomedical, Inc., priority 2013, dated 2020)
“And” between values parts separate entries of the source, which are not always exact repeats. Identical values can stand only once. Like-named read-outs stand apart in the source and are kept apart here.

Legend:
[1] = Safety of highly pure Compound 1 in animal experiments; format: in vivo; details: highly pure Compound 1, mice
Protocol: For example, FIG. 13 of WO 2011/116398 and WO 2011/116399 illustrates the toxicity observed with a composition with about 90% purity for Compound 1, while FIG. 14 of WO 2011/116398 and WO 2011/116399 illustrates that the highly pure compositions having about 95% or greater purity for Compound 1 are safe and effective. In a Phase 1 study, the dose of Compound 1 was escalated from 20 mg to 2000 mg/day, and a maximum tolerated dose (MTD) not reached. […] The clinical safety profile of the substantially pure compositions of Compound 1 is among the best for oncology drugs in history.

[2] = Phase I dose escalation trial: safety, tolerability, adverse events; format: in vivo, human; details: Phase 1, dose escalated from 20 mg to 2000 mg/day
From the text: The most common adverse events were: diarrhea, nausea, and fatigue. Grade 3 or greater events include: fatigue and diarrhea.

[3] = Phase I dose escalation trial: pharmacokinetic profile; format: in vivo, human; details: for Tmax / AUC(0-t) / concentration at 24 h / half-life / Cmax / AUC: human, plasma, oral, patient plasma; for AUC(0-t): read-out: AUC0-24; for concentration at 24 h: read-out: C24h; for half-life: read-out: T1/2,t (converted)
Protocol: Pharmacokinetics profile with oral bid dosing was also studied. The plasma concentration of the drug reached several folds over the efficacious concentration (in vitro IC50) as illustrated in Table 8.
To maintain drug plasma concentration at or above the efficacious level for a desirable duration and to further increase peak plasma concentration, we studied the pharmacokinetics of a 500 mg BID regimen (at 4 hour interval between two doses on the same day or “q4h”), and compared it to that of a 500 mg QD regimen (FIG. 1). […] In another suitable dosing regimen, 500 mg of Compound 1 were administered three times a day (TID) to human subjects.

[4] = Pharmacokinetics when taken fasting, with milk or with food; format: in vivo, human; details: for Tmax: human, in vivo, oral
Protocol: In yet another suitable dosing regimen, Compound 1 was administered with a fluid, e.g., a milk or water, with empty stomach which improves pharmacokinetical exposure (Table 12). Counterintuitively, milk helped patients with gastrointestinal adverse effects.
In yet another suitable dosing regimen, Compound 1 was administered with food which delayed the Tmax (Table 13).

[5] = test system: phosphorylated STAT3 (p-STAT3); assay: Immunohistochemistry of CRC patient tumor tissue for p-STAT3; format: in vivo, human; details: 100 mg/kg QD (single daily dosage), FIG. 3A
Protocol: CRC patient's archival tumor tissue samples were analyzed through immunohistochemistry (IHC) using labeled antibodies against phosphorylated STAT3 (p-STAT3). […] For instance, 40% of the patients with high p-STAT3 levels before treatment survived longer than 100 weeks whereas only 10% of those with low or no p-STAT3 levels before treatment survived beyond 100 weeks. This further confirms that the Compound of the Invention downregulates that STAT3 pathway, and that the STAT3 pathway is implicated in colorectal cancers.

β-catenin = assay: Immunohistochemistry of CRC patient tumor tissue for β-catenin; format: in vivo, human; details: FIG. 4A
Protocol: CRC patient's archival tumor tissue samples were analyzed through immunohistochemistry (IHC) using labeled antibodies against β-catenin. […] For instance, close to 40% of the patients with high nuclear β-catenin levels before treatment survived longer than 100 weeks whereas none of those with high levels of membranous β-catenin survived beyond 25 weeks. This further confirms that the Compound of the Invention disrupts or somehow modulates the β-catenin function, and that the β-catenin pathway is implicated in colorectal cancers.

cancer cells = assay: Antitumor activity of the compound in patient urine; format: cell-based; details: compound in patient urine tested against cancer cells
[6] = 20 mg, Total Daily Dose 20 (mg), qd
[7] = 40 mg, Total Daily Dose 40 (mg), qd
[8] = 80 mg, Total Daily Dose 80 (mg), bid q4h
[9] = 80 mg, Total Daily Dose 80 (mg), qd
[10] = 160 mg, Total Daily Dose 160 (mg), bid q4h
[11] = 320 mg, Total Daily Dose 320 (mg), bid q4h
[12] = 400 mg, Total Daily Dose 400 (mg), bid q4h
[13] = 600 mg, Total Daily Dose 600 (mg), bid q4h
[14] = 800 mg, Total Daily Dose 800 (mg), bid q4h
[15] = 1000 mg, Total Daily Dose 1000 (mg), bid q4h
[16] = 1000 mg, Total Daily Dose 1000 (mg), bid q6h
[17] = 1400 mg, Total Daily Dose 1400 (mg), bid q4h
[18] = 1500 mg, Total Daily Dose 1500 (mg), tid q4h
[19] = 2000 mg, Total Daily Dose 2000 (mg), bid q4h

CC(=O)c1cc2c(o1)C(=O)c1ccccc1C2=O [Compound 1, 2-acetylnaphtho[2,3-b]furan-4,9-dione]
adverse effects [1]: No signs of any adverse effects | maximum tolerated dose (MTD) [2]: not reached | patient exposure, 500 mg three times a day (TID) versus twice daily ([3]; human subjects): not significantly improved | Tmax [3, 6]: 3 h | AUC(0-t) [3, 6]: 2.01 µM·h | concentration at 24 h [3, 6]: 30 nM | half-life [3, 6]: 18.5 h | Cmax [3, 7]: 500 nM | Tmax [3, 7]: 0.5 h | AUC(0-t) [3, 7]: 3.44 µM·h | concentration at 24 h [3, 7]: 30 nM | half-life [3, 7]: 4.5 h | AUC [3, 8]: 8.13 µM·h | Cmax [3, 8]: 900 nM | Tmax [3, 8]: 8.1 h | AUC(0-t) [3, 8]: 7.95 µM·h | concentration at 24 h [3, 8]: 30 nM | half-life [3, 8]: 3.6 h | Cmax [3, 9]: 2240 nM | Tmax [3, 9]: 1.5 h | AUC(0-t) [3, 9]: 12.8 µM·h | concentration at 24 h [3, 9]: 70 nM | half-life [3, 9]: 5.2 h | Cmax [3, 10]: 1330 nM | Tmax [3, 10]: 3.9 h | AUC [3, 11]: 38.3 µM·h | Cmax [3, 11]: 2920 nM | Tmax [3, 11]: 3.8 h | AUC(0-t) [3, 11]: 33.1 µM·h | concentration at 24 h [3, 11]: 240 nM | half-life [3, 11]: 5.7 h | AUC [3, 12]: 48.2 µM·h | Cmax [3, 12]: 3750 nM | Tmax [3, 12]: 7.9 h | AUC(0-t) [3, 12]: 40.2 µM·h | concentration at 24 h [3, 12]: 620 nM | half-life [3, 12]: 6.9 h | AUC [3, 13]: 37.1 µM·h | Cmax [3, 13]: 2670 nM | Tmax [3, 13]: 3.2 h | AUC(0-t) [3, 13]: 27.8 µM·h | concentration at 24 h [3, 13]: 420 nM | half-life [3, 13]: 9 h | AUC [3, 14]: 27 µM·h | Cmax [3, 14]: 3040 nM | Tmax [3, 14]: 4.3 h | AUC(0-t) [3, 14]: 26.1 µM·h | concentration at 24 h [3, 14]: 160 nM | half-life [3, 14]: 4 h | AUC [3, 15]: 50.7 µM·h | Cmax [3, 15]: 4970 nM | Tmax [3, 15]: 6.6 h | AUC(0-t) [3, 15]: 45.1 µM·h | concentration at 24 h [3, 15]: 290 nM | half-life [3, 15]: 6.6 h | AUC [3, 16]: 22.9 µM·h | Cmax [3, 16]: 1360 nM | Tmax [3, 16]: 5.7 h | AUC(0-t) [3, 16]: 15.8 µM·h | concentration at 24 h [3, 16]: 330 nM | half-life [3, 16]: 12.7 h | AUC [3, 17]: 45 µM·h | Cmax [3, 17]: 2050 nM | Tmax [3, 17]: 2.9 h | AUC(0-t) [3, 17]: 28.2 µM·h | concentration at 24 h [3, 17]: 650 nM | half-life [3, 17]: 13.6 h | AUC [3, 18]: 59.9 µM·h | Cmax [3, 18]: 3750 nM | Tmax [3, 18]: 7.3 h | AUC(0-t) [3, 18]: 46.4 µM·h | concentration at 24 h [3, 18]: 940 nM | half-life [3, 18]: 8.2 h | AUC [3, 19]: 45.8 µM·h | Cmax [3, 19]: 1690 nM | Tmax [3, 19]: 6.3 h | AUC(0-t) [3, 19]: 25.9 µM·h | concentration at 24 h [3, 19]: 800 nM | half-life [3, 19]: 17.2 h | pharmacokinetics, 500 mg BID (q4h) versus 500 mg QD ([3]; patients, FIG. 1): no significant difference | Tmax ([4]; Patient 20, Fasting): 2 h | Tmax ([4]; Patient 20, With Food): 8 h | Tmax ([4]; Patient 20, With Milk): 2 h | Tmax ([4]; Patient 21, Fasting): 6 h | Tmax ([4]; Patient 21, With Food): 6 h | Tmax ([4]; Patient 21, With Milk): 6 h | Tmax ([4]; Patient 22, Fasting): 8 h | Tmax ([4]; Patient 22, With Food): 10 h | Tmax ([4]; Patient 22, With Milk): 8 h | Tmax ([4]; Patient 24, With Food): 10 h | Tmax ([4]; Patient 24, With Milk): 6.3 h | Tmax ([4]; Patient 27, With Food): 6 h | Tmax ([4]; Patient 27, With Milk): 0.5 h | Tmax ([4]; Patient 28, With Food): 10 h | Tmax ([4]; Patient 28, With Milk): 6 h | AUC0-24hrs Fold Change ([4]; with Milk versus Fasting): 1.56 and 1.55 | Cmax Fold Change ([4]; with Milk versus Fasting): 1.52 and 1.13 | p-STAT3 in the patient tissue after treatment (IHC) [5]: almost no longer any detectable p-STAT3 | accumulation of β-catenin in cell nucleus in tumor tissues (IHC) (β-catenin): effective in removing or preventing the accumulation of β-catenin in cell nucleus | antitumor activity in patient urine (cancer cells): remained potent against cancer cells
